Test results as given in ChEMBL document CHEMBL1126966, “1,25,28-trihydroxyvitamin D2 up-regulates renal vitamin D receptor without causing hypercalcemia” (1993).

Tests used:
[1] = organism: Rattus norvegicus; assay: Compound was tested for increase in plasma calcium concentration in rats; assay type: functional, organism-based
[2] = organism: Rattus norvegicus; assay: Compound was tested for its ability to stimulate bone calcium resorption in rats at a dose of 12.5 ng/rat; assay type: functional, organism-based
[3] = organism: Rattus norvegicus; assay: Compound was tested for its ability to stimulate bone calcium resorption in serum relative to 1,25(OH)2D3 in rats at a dose of 25 ng/rat; assay type: functional, organism-based
[4] = organism: Rattus norvegicus; assay: Compound was tested for its ability to stimulate intestinal calcium absorption relative to 1,25(OH)2D3 in rats at a dose of 200ng/rat, expressed as Ca (serosal) /Ca (mucosal); assay type: functional
[5] = organism: Rattus norvegicus; assay: Compound was tested for its ability to stimulate bone calcium resorption in serum relative to 1,25(OH)2D3 in rats at a dose of 200 ng/rat; assay type: functional, organism-based
[6] = organism: Rattus norvegicus; assay: Compound was tested for its ability to stimulate bone calcium resorption in serum relative to 1,25(OH)2D3 in rats at a dose of 100 ng/rat; assay type: functional, organism-based
[7] = organism: Rattus norvegicus; assay: Compound was tested for its ability to stimulate bone calcium resorption in serum relative to 1,25(OH)2D3 in rats at a dose of 50 ng/rat; assay type: functional, organism-based
[8] = organism: Rattus norvegicus; assay: Compound was tested for regulation of kidney VDR in rats; assay type: functional
[9] = organism: Rattus norvegicus; assay: Compound was tested for its ability to stimulate intestinal calcium absorption relative to 1,25(OH)2D3 in rats at a dose of 50ng/rat, expressed as Ca (serosal) /Ca (mucosal); assay type: functional
[10] = organism: Rattus norvegicus; assay: Compound was tested for its ability to stimulate intestinal calcium absorption relative to 1,25(OH)2D3 in rats at a dose of 25ng/rat, expressed as Ca (serosal) /Ca (mucosal); assay type: functional
[11] = organism: Rattus norvegicus; assay: Compound was tested for its ability to stimulate intestinal calcium absorption relative to 1,25(OH)2D3 in rats at a dose of 100ng/rat, expressed as Ca (serosal) /Ca (mucosal); assay type: functional

C=C1/C(=C\C=C2/CCC[C@]3(C)[C@@H]([C@H](C)CCCC(C)(C)O)CC[C@@H]23)C[C@@H](O)C[C@@H]1O
Plasma Ca2+ [1]: 10.6 mg/dL
Serum Ca2+ [2]: 4.6 mg/dL

C=C1/C(=C\C=C2/CCC[C@]3(C)[C@@H]([C@H](C)/C=C/[C@H](CO)C(C)(C)O)CC[C@@H]23)C[C@@H](O)C[C@@H]1O
Serum Ca2+ [3]: 4.1 mg/dL
Ratio [4]: 3.21
Serum Ca2+ [5]: 4 mg/dL
Plasma Ca2+ [1]: 10.5 mg/dL
Serum Ca2+ [6]: 3.8 mg/dL
Serum Ca2+ [7]: 4.2 mg/dL
Kidney VDR [8]: 249 fM (mg of protein)-1
Ratio [9]: 2.08
Ratio [10]: 2.17
Ratio [11]: 2.22
